Laboratory results as given in article PMC5694373 (European journal of pharmaceutical sciences : official …, 2017).
“And” between values parts separate entries of the source, which are not always exact repeats. Identical values can stand only once.

Assays:
[1] = biological target: neuraminidase of oseltamivir-resistant pandemic 2009 H1N1 A/Hong Kong/2369/2009 [H275Y] (HK/09-H275Y) (Influenza A virus, UniProt C6KQ69); experiment: biochemical; assay type: biochemical
[2] = test system: mixture of 99% MX/09 and 1% oseltamivir-resistant HK/09-H275Y; assay type: cell-based, influenza A virus H1N1
[3] = test system: oseltamivir-resistant HK/09-H275Y influenza; assay type: cell-based, influenza A virus H1N1
[4] = test system: HK/09-H275Y subpopulation in 99% MX/09 + 1% HK/09-H275Y infection; assay type: cell-based, influenza A virus H1N1
[5] = biological target: neuraminidase of zanamivir-resistant seasonal 2008 H1N1 A/Brazil/1633/2008 [Q136K] (BZ/08-Q136K) (Influenza A virus, UniProt A4GBY0, Q136K); assay type: biochemical

| Compound | IC50 [1] [pM] | viral burden lower than the no-treatment control [2] | reduction of peak viral titers [3] | IC50 values (95% Confidence Interval) [1] | HK/09-H275Y subpopulations [4] | IC50 values (95% Confidence Interval) [5] | effect on viral burden relative to no-treatment control [2] |
| --- | --- | --- | --- | --- | --- | --- | --- |
| CC(=O)N[C@H]1[C@H]([C@H](O)[C@H](O)CO)OC(C(=O)O)=C[C@@H]1N=C(N)N [Zanamivir, zanamivir] | 7.22 | at least 2 log10 | approximately 4 log10 PFU/ml |  |  |  |  |
| Oseltamivir carboxylate |  |  |  | 15.30 (10.16 – 20.44) ng/ml | 76% and 83% | 0.0028 (0.0005 – 0.0051) ng/ml | peak viral load equivalent to that of the no-treatment control by 72 h |
